Reference: PubChem BioAssay (NCI)
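Interpolation was linear, between the two tested concentrations surrounding the appropriate level; five concentrations were tested over 48 hours in 96-well plates. GI50 is the concentration that inhibits growth by half. The concentration for full growth arrest is given as TGI.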

Key:
Experiment in all cases: DTP human tumour cell line panel, 48 h
786-0 renal = system: 786-0 renal
A498 renal = system: A498 renal
A549 NSCLC = system: A549 NSCLC
ACHN renal = system: ACHN renal
BT-549 breast = system: BT-549 breast
CAKI-1 renal = system: CAKI-1 renal
CCRF-CEM leukemia = system: CCRF-CEM leukemia
COLO 205 colon = system: COLO 205 colon
DU-145 prostate = system: DU-145 prostate
EKVX NSCLC = system: EKVX NSCLC
HCC-2998 colon = system: HCC-2998 colon
HCT-116 colon = system: HCT-116 colon
HCT-15 colon = system: HCT-15 colon
HL-60(TB) leukemia = system: HL-60(TB) leukemia
HOP-62 NSCLC = system: HOP-62 NSCLC
HOP-92 NSCLC = system: HOP-92 NSCLC
HS 578T breast = system: HS 578T breast
HT29 colon = system: HT29 colon
IGROV1 ovarian = system: IGROV1 ovarian
K-562 leukemia = system: K-562 leukemia
KM12 colon = system: KM12 colon
LOX IMVI melanoma = system: LOX IMVI melanoma
M14 melanoma = system: M14 melanoma
MALME-3M melanoma = system: MALME-3M melanoma
MCF7 breast = system: MCF7 breast
MDA-MB-231 breast = system: MDA-MB-231 breast
MDA-MB-435 = system: MDA-MB-435
MOLT-4 leukemia = system: MOLT-4 leukemia
NCI-H226 lung = system: NCI-H226 lung
NCI-H23 lung = system: NCI-H23 lung
NCI-H460 lung = system: NCI-H460 lung
NCI-H522 lung = system: NCI-H522 lung
NCI/ADR-RES ovarian = system: NCI/ADR-RES ovarian
OVCAR-3 ovarian = system: OVCAR-3 ovarian
OVCAR-4 ovarian = system: OVCAR-4 ovarian
OVCAR-5 ovarian = system: OVCAR-5 ovarian
OVCAR-8 ovarian = system: OVCAR-8 ovarian
PC-3 prostate = system: PC-3 prostate
RPMI-8226 leukemia = system: RPMI-8226 leukemia
SF-268 CNS = system: SF-268 CNS
SF-295 CNS = system: SF-295 CNS
SF-539 CNS = system: SF-539 CNS
SK-MEL-2 melanoma = system: SK-MEL-2 melanoma
SK-MEL-28 melanoma = system: SK-MEL-28 melanoma
SK-MEL-5 melanoma = system: SK-MEL-5 melanoma
SK-OV-3 ovarian = system: SK-OV-3 ovarian
SN12C renal = system: SN12C renal
SNB-19 CNS = system: SNB-19 CNS
SNB-75 CNS = system: SNB-75 CNS
SR leukemia = system: SR leukemia
SW-620 colon = system: SW-620 colon
T-47D breast = system: T-47D breast
TK-10 renal = system: TK-10 renal
UACC-257 melanoma = system: UACC-257 melanoma
UACC-62 melanoma = system: UACC-62 melanoma
UO-31 renal = system: UO-31 renal

With `CN(C)CCCOc1ccc(C(=C(c2ccccc2)C2CCCC2)c2ccc(OCCCN(C)C)cc2)cc1` the GI50 (786-0 renal) was 2.62 µM, the TGI (786-0 renal) was 8.3 µM and the GI50 (A498 renal) was 13.8 µM. It also gave a TGI (A498 renal) of 28.5 µM, a GI50 (A549 NSCLC) of 3.47 µM and a TGI (A549 NSCLC) of 16.6 µM. It also gave a GI50 (ACHN renal) of 2.12 µM, a TGI (ACHN renal) of 4.7 µM and a GI50 (BT-549 breast) of 15.3 µM. The TGI (BT-549 breast) was 30.8 µM, the GI50 (CAKI-1 renal) was 3.62 µM and the TGI (CAKI-1 renal) was 13.6 µM. For the same molecule, the GI50 (CCRF-CEM leukemia) was 2.58 µM, the TGI (CCRF-CEM leukemia) was 6.85 µM and the GI50 (COLO 205 colon) was 1.71 µM. For the same molecule, the TGI (COLO 205 colon) was 3.62 µM, the GI50 (DU-145 prostate) was 4.43 µM and the TGI (DU-145 prostate) was 15.2 µM. It also gave a GI50 (EKVX NSCLC) of 7.43 µM, a TGI (EKVX NSCLC) of 21.3 µM and a GI50 (HCC-2998 colon) of 1.93 µM. It also gave a TGI (HCC-2998 colon) of 3.91 µM, a GI50 (HCT-116 colon) of 1.89 µM and a TGI (HCT-116 colon) of 4.13 µM. The GI50 (HCT-15 colon) was 1.67 µM, the TGI (HCT-15 colon) was 3.22 µM and the GI50 (HL-60(TB) leukemia) was 2.03 µM. It also gave a TGI (HL-60(TB) leukemia) of 4.44 µM, a GI50 (HOP-62 NSCLC) of 14.6 µM and a TGI (HOP-62 NSCLC) of 32.6 µM. For the same molecule, the GI50 (HOP-92 NSCLC) was 2.72 µM, the TGI (HOP-92 NSCLC) was 15.2 µM and the GI50 (HS 578T breast) was 2.13 µM. It also gave a TGI (HS 578T breast) of 5.53 µM, a GI50 (HT29 colon) of 1.97 µM and a TGI (HT29 colon) of 3.97 µM. The GI50 (IGROV1 ovarian) was 2.07 µM, the TGI (IGROV1 ovarian) was 4.58 µM and the GI50 (K-562 leukemia) was 2.02 µM. It also gave a TGI (K-562 leukemia) of 5.26 µM, a GI50 (KM12 colon) of 3.56 µM and a TGI (KM12 colon) of 13.1 µM. It also gave a GI50 (LOX IMVI melanoma) of 1.63 µM, a TGI (LOX IMVI melanoma) of 2.99 µM and a GI50 (M14 melanoma) of 1.85 µM. The TGI (M14 melanoma) was 3.74 µM, the GI50 (MALME-3M melanoma) was 1.64 µM and the TGI (MALME-3M melanoma) was 3.01 µM. For the same molecule, the GI50 (MCF7 breast) was 1.33 µM, the TGI (MCF7 breast) was 2.69 µM and the GI50 (MDA-MB-231 breast) was 1.74 µM. For the same molecule, the TGI (MDA-MB-231 breast) was 3.22 µM, the GI50 (MDA-MB-435) was 1.7 µM and the TGI (MDA-MB-435) was 3.09 µM. For the same molecule, the GI50 (MOLT-4 leukemia) was 2.56 µM, the TGI (MOLT-4 leukemia) was 6.34 µM and the GI50 (NCI-H226 lung) was 2.81 µM. The TGI (NCI-H226 lung) was 11.4 µM, the GI50 (NCI-H23 lung) was 4.95 µM and the TGI (NCI-H23 lung) was 17.5 µM. For the same molecule, the GI50 (NCI-H460 lung) was 1.69 µM, the TGI (NCI-H460 lung) was 3.16 µM and the GI50 (NCI-H522 lung) was 1.55 µM. The TGI (NCI-H522 lung) was 3.12 µM, the GI50 (NCI/ADR-RES ovarian) was 2.85 µM and the GI50 (OVCAR-3 ovarian) was 2.16 µM. For the same molecule, the TGI (OVCAR-3 ovarian) was 5.19 µM, the GI50 (OVCAR-4 ovarian) was 1.91 µM and the TGI (OVCAR-4 ovarian) was 4.34 µM. The GI50 (OVCAR-5 ovarian) was 1.85 µM, the TGI (OVCAR-5 ovarian) was 4.68 µM and the GI50 (OVCAR-8 ovarian) was 1.98 µM. For the same molecule, the TGI (OVCAR-8 ovarian) was 4.87 µM, the GI50 (PC-3 prostate) was 3.26 µM and the TGI (PC-3 prostate) was 14.2 µM. The GI50 (RPMI-8226 leukemia) was 2.17 µM, the TGI (RPMI-8226 leukemia) was 5.75 µM and the GI50 (SF-268 CNS) was 2.51 µM. For the same molecule, the TGI (SF-268 CNS) was 7.16 µM, the GI50 (SF-295 CNS) was 1.85 µM and the TGI (SF-295 CNS) was 3.98 µM. The GI50 (SF-539 CNS) was 1.69 µM, the TGI (SF-539 CNS) was 3.06 µM and the GI50 (SK-MEL-2 melanoma) was 11.6 µM. It also gave a TGI (SK-MEL-2 melanoma) of 24.1 µM, a GI50 (SK-MEL-28 melanoma) of 1.62 µM and a TGI (SK-MEL-28 melanoma) of 3.01 µM. The GI50 (SK-MEL-5 melanoma) was 12.1 µM, the TGI (SK-MEL-5 melanoma) was 24.5 µM and the GI50 (SK-OV-3 ovarian) was 17.1 µM. For the same molecule, the TGI (SK-OV-3 ovarian) was 33 µM, the GI50 (SN12C renal) was 1.64 µM and the TGI (SN12C renal) was 3.04 µM. The GI50 (SNB-19 CNS) was 2.15 µM, the TGI (SNB-19 CNS) was 5.67 µM and the GI50 (SNB-75 CNS) was 9.08 µM. It also gave a TGI (SNB-75 CNS) of 22.1 µM, a GI50 (SR leukemia) of 2 µM and a TGI (SR leukemia) of 7.36 µM. It also gave a GI50 (SW-620 colon) of 1.58 µM, a TGI (SW-620 colon) of 3.02 µM and a GI50 (T-47D breast) of 9.86 µM. For the same molecule, the TGI (T-47D breast) was 25.3 µM, the GI50 (TK-10 renal) was 14.6 µM and the TGI (TK-10 renal) was 28.9 µM. For the same molecule, the GI50 (UACC-257 melanoma) was 10.7 µM, the TGI (UACC-257 melanoma) was 24.1 µM and the GI50 (UACC-62 melanoma) was 1.6 µM. The TGI (UACC-62 melanoma) was 2.98 µM, the GI50 (UO-31 renal) was 1.54 µM and the TGI (UO-31 renal) was 3.08 µM.
